# Results from PubChem BioAssay (NCI).
#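 Abbreviation: GI50, concentration required for 50% inhibition of growth. At the TGI there is no net growth.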
# What was measured:
# Assay in all cases: NCI tumour cell line growth inhibition, 384-well format
# 786-0 renal = system: 786-0 renal
# A498 renal = system: A498 renal
# A549 NSCLC = system: A549 NSCLC
# ACHN renal = system: ACHN renal
# BT-549 breast = system: BT-549 breast
# CAKI-1 renal = system: CAKI-1 renal
# COLO 205 colon = system: COLO 205 colon
# DU-145 prostate = system: DU-145 prostate
# EKVX NSCLC = system: EKVX NSCLC
# HCC-2998 colon = system: HCC-2998 colon
# HCT-116 colon = system: HCT-116 colon
# HCT-15 colon = system: HCT-15 colon
# HL-60(TB) leukemia = system: HL-60(TB) leukemia
# HOP-62 NSCLC = system: HOP-62 NSCLC
# HOP-92 NSCLC = system: HOP-92 NSCLC
# HS 578T breast = system: HS 578T breast
# HT29 colon = system: HT29 colon
# IGROV1 ovarian = system: IGROV1 ovarian
# KM12 colon = system: KM12 colon
# LOX IMVI melanoma = system: LOX IMVI melanoma
# M14 melanoma = system: M14 melanoma
# MALME-3M melanoma = system: MALME-3M melanoma
# MCF7 breast = system: MCF7 breast
# MDA-MB-231 breast = system: MDA-MB-231 breast
# MDA-MB-435 melanoma = system: MDA-MB-435 melanoma
# MDA-MB-468 breast = system: MDA-MB-468 breast
# MOLT-4 leukemia = system: MOLT-4 leukemia
# NCI-H226 lung = system: NCI-H226 lung
# NCI-H23 lung = system: NCI-H23 lung
# NCI-H322M lung = system: NCI-H322M lung
# NCI-H460 NSCLC = system: NCI-H460 NSCLC
# NCI-H522 lung = system: NCI-H522 lung
# NCI/ADR-RES ovarian = system: NCI/ADR-RES ovarian
# OVCAR-3 ovarian = system: OVCAR-3 ovarian
# OVCAR-4 ovarian = system: OVCAR-4 ovarian
# OVCAR-5 ovarian = system: OVCAR-5 ovarian
# OVCAR-8 ovarian = system: OVCAR-8 ovarian
# PC-3 prostate = system: PC-3 prostate
# RPMI-8226 leukemia = system: RPMI-8226 leukemia
# RXF 393 renal = system: RXF 393 renal
# SF-268 CNS = system: SF-268 CNS
# SF-295 CNS = system: SF-295 CNS
# SF-539 CNS = system: SF-539 CNS
# SK-MEL-28 melanoma = system: SK-MEL-28 melanoma
# SK-MEL-5 melanoma = system: SK-MEL-5 melanoma
# SK-OV-3 ovarian = system: SK-OV-3 ovarian
# SN12C renal = system: SN12C renal
# SNB-19 CNS = system: SNB-19 CNS
# SNB-75 CNS = system: SNB-75 CNS
# SR leukemia = system: SR leukemia
# SW-620 colon = system: SW-620 colon
# T-47D breast = system: T-47D breast
# TK-10 renal = system: TK-10 renal
# U251 glioblastoma = system: U251 glioblastoma
# UACC-257 melanoma = system: UACC-257 melanoma
# UACC-62 melanoma = system: UACC-62 melanoma
# UO-31 renal = system: UO-31 renal
compound,measurement,setting,value
Cc1ccc(C(=O)Nc2ccc(CN3CCN(C)CC3)c(C(F)(F)F)c2)cc1C#Cc1cnc2cccnn12,GI50,786-0 renal,0.339 µM
same,TGI,786-0 renal,1.06 µM
same,GI50,A498 renal,0.39 µM
same,TGI,A498 renal,1.31 µM
same,GI50,A549 NSCLC,0.361 µM
same,TGI,A549 NSCLC,1.25 µM
same,GI50,ACHN renal,0.21 µM
same,TGI,ACHN renal,0.685 µM
same,GI50,BT-549 breast,0.309 µM
same,TGI,BT-549 breast,1 µM
same,GI50,CAKI-1 renal,0.21 µM
same,TGI,CAKI-1 renal,0.504 µM
same,GI50,COLO 205 colon,0.348 µM
same,TGI,COLO 205 colon,1.44 µM
same,GI50,DU-145 prostate,0.345 µM
same,TGI,DU-145 prostate,1.19 µM
same,GI50,EKVX NSCLC,0.574 µM
same,TGI,EKVX NSCLC,1.78 µM
same,GI50,HCC-2998 colon,0.5 µM
same,TGI,HCC-2998 colon,1.29 µM
same,GI50,HCT-116 colon,0.193 µM
same,TGI,HCT-116 colon,0.541 µM
same,GI50,HCT-15 colon,0.265 µM
same,TGI,HCT-15 colon,1.02 µM
same,GI50,HL-60(TB) leukemia,0.163 µM
same,TGI,HL-60(TB) leukemia,0.32 µM
same,GI50,HOP-62 NSCLC,0.403 µM
same,TGI,HOP-62 NSCLC,1.38 µM
same,GI50,HOP-92 NSCLC,0.249 µM
same,TGI,HOP-92 NSCLC,0.58 µM
same,GI50,HS 578T breast,0.107 µM
same,TGI,HS 578T breast,0.29 µM
same,GI50,HT29 colon,0.221 µM
same,TGI,HT29 colon,0.607 µM
same,GI50,IGROV1 ovarian,0.18 µM
same,TGI,IGROV1 ovarian,0.558 µM
same,GI50,KM12 colon,0.046 µM
same,TGI,KM12 colon,1.38 µM
same,GI50,LOX IMVI melanoma,0.153 µM
same,TGI,LOX IMVI melanoma,0.307 µM
same,GI50,M14 melanoma,0.167 µM
same,TGI,M14 melanoma,0.573 µM
same,GI50,MALME-3M melanoma,0.104 µM
same,TGI,MALME-3M melanoma,0.226 µM
same,GI50,MCF7 breast,0.56 µM
same,TGI,MCF7 breast,1.83 µM
same,GI50,MDA-MB-231 breast,0.171 µM
same,TGI,MDA-MB-231 breast,0.399 µM
same,GI50,MDA-MB-435 melanoma,0.425 µM
same,TGI,MDA-MB-435 melanoma,1.34 µM
same,GI50,MDA-MB-468 breast,0.563 µM
same,TGI,MDA-MB-468 breast,1.58 µM
same,GI50,MOLT-4 leukemia,0.203 µM
same,TGI,MOLT-4 leukemia,0.619 µM
same,GI50,NCI-H226 lung,0.0476 µM
same,TGI,NCI-H226 lung,0.24 µM
same,GI50,NCI-H23 lung,0.246 µM
same,TGI,NCI-H23 lung,0.797 µM
same,GI50,NCI-H322M lung,0.275 µM
same,TGI,NCI-H322M lung,0.692 µM
same,GI50,NCI-H460 NSCLC,0.396 µM
same,TGI,NCI-H460 NSCLC,1.51 µM
same,GI50,NCI-H522 lung,0.147 µM
same,TGI,NCI-H522 lung,0.582 µM
same,GI50,NCI/ADR-RES ovarian,0.315 µM
same,TGI,NCI/ADR-RES ovarian,1 µM
same,GI50,OVCAR-3 ovarian,0.374 µM
same,TGI,OVCAR-3 ovarian,1.37 µM
same,GI50,OVCAR-4 ovarian,0.538 µM
same,TGI,OVCAR-4 ovarian,1.82 µM
same,GI50,OVCAR-5 ovarian,0.516 µM
same,TGI,OVCAR-5 ovarian,1.68 µM
same,GI50,OVCAR-8 ovarian,0.344 µM
same,TGI,OVCAR-8 ovarian,1.22 µM
same,GI50,PC-3 prostate,0.872 µM
same,TGI,PC-3 prostate,2.07 µM
same,GI50,RPMI-8226 leukemia,0.288 µM
same,TGI,RPMI-8226 leukemia,0.76 µM
same,GI50,RXF 393 renal,0.284 µM
same,TGI,RXF 393 renal,0.621 µM
same,GI50,SF-268 CNS,0.222 µM
same,TGI,SF-268 CNS,0.844 µM
same,GI50,SF-295 CNS,1.08 µM
same,TGI,SF-295 CNS,2.27 µM
same,GI50,SF-539 CNS,0.109 µM
same,TGI,SF-539 CNS,0.245 µM
same,GI50,SK-MEL-28 melanoma,0.362 µM
same,TGI,SK-MEL-28 melanoma,1.27 µM
same,GI50,SK-MEL-5 melanoma,0.17 µM
same,TGI,SK-MEL-5 melanoma,0.373 µM
same,GI50,SK-OV-3 ovarian,0.297 µM
same,TGI,SK-OV-3 ovarian,1.21 µM
same,GI50,SN12C renal,0.324 µM
same,TGI,SN12C renal,1.1 µM
same,GI50,SNB-19 CNS,1.27 µM
same,TGI,SNB-19 CNS,2.56 µM
same,GI50,SNB-75 CNS,0.217 µM
same,TGI,SNB-75 CNS,0.79 µM
same,GI50,SR leukemia,0.521 µM
same,TGI,SR leukemia,0.801 µM
same,GI50,SW-620 colon,0.399 µM
same,TGI,SW-620 colon,1.48 µM
same,GI50,T-47D breast,0.608 µM
same,TGI,T-47D breast,1.81 µM
same,GI50,TK-10 renal,0.737 µM
same,TGI,TK-10 renal,1.97 µM
same,GI50,U251 glioblastoma,0.492 µM
same,TGI,U251 glioblastoma,1.61 µM
same,GI50,UACC-257 melanoma,0.222 µM
same,TGI,UACC-257 melanoma,0.419 µM
same,GI50,UACC-62 melanoma,0.144 µM
same,TGI,UACC-62 melanoma,0.745 µM
same,GI50,UO-31 renal,0.392 µM
same,TGI,UO-31 renal,1.15 µM
